In US20240391931A1 (Bristol-Myers Squibb Company, priority 2021, published 2024):
Where a name gives a salt, the structure may show the parent alone.

Columns and labels:
[1] = target: T1, HER2 wildtype (WT) protein (Homo sapiens, UniProt P04626); assay: HER2 signaling (pHER2 Tyr1248/total HER2 MSD) in BT474 cells; assay type: cell-based; conditions: 1.5 hr compound, 1% FBS
T1 construct: BT474 and N87 cell lines which endogenously overexpress the HER2 wildtype (WT) protein; endogenous in cells; host or cells: BT474, N87
Procedure: In addition to the engineered cell lines, the following cell lines were used: BT474 (human breast carcinoma), N87 (human gastric carcinoma), NCI-H1781 (human lung adenocarcinoma), and A431 (human epidermoid carcinoma); all cell lines were obtained from the American Type Culture Collection (ATCC, Manassas, VA). NCI-H1781 were grown in complete RPMI 1640 (Life Technologies, Carlsbad, CA) supplemented with 15% fetal bovine serum (FBS, Life Technologies, Carlsbad, CA) and 1% Penicillin-Streptomycin (P/S, Life Technologies, Carlsbad, CA). N87 cells were grown in complete RPMI 1640 supplemented with 10% FBS and 1% P/S. BT474 and A431 cells were grown in DMEM (Life Technologies, Carlsbad, CA) supplemented with 10% FBS and 1% P/S. All cells were maintained and propagated in a humidified 5% CO2 incubator at 37° C.
(§1) HER2 signaling was assessed in BT474 and N87 cell lines which endogenously overexpress the HER2 wildtype (WT) protein, in NCI-H1781 cells which endogenously expresses a HER2 mutant protein containing a VC insertion in the kinase domain (HER2VC or G776delinsVC), and in engineered cell lines transduced to express the Her2 mutant protein containing the YVMA insertion (Hek293-HER2YVMA and BEAS2B-HER2YVMA).
(§2) BT474, N87, and NCI-H1781 were plated in 96-well tissue-culture treated plates (Corning Costar, Sigma-Aldrich) in full media and incubated overnight. Hek293-HER2YVMA and BEAS2B-HER2YVMA cells were plated in 96-well poly-D-lysine treated plates (BD Bioscience, San Jose, CA). For treatment with test compounds, the media was replaced with corresponding low serum media (1% FBS) containing test compound at 1.1, 0.37, 0.12, 0.041, 0.014, 0.005, 0.0014, 0.0005 μM or DMSO control (0.1%). Cells were incubated with compound for 1.5 hr at 37° C. After compound treatment, the media was removed and cells were lysed for 30 min on ice in complete MSD lysis buffer (prepared using MSD base lysis buffer (Meso-Scale Discovery) supplemented with cOmplete, EDTA-free Protease inhibitor cocktail (Roche), Phosphatase Inhibitor Cocktails 2 and 3 (Sigma-Aldrich), and 1 mM PMSF (Sigma-Aldrich)). Lysates were stored at −70° C. until further analysis.
(§3) HER2 signaling was evaluated using phospho (Tyr1248)/total ErbB2 whole cell lysate MSD plates (Meso-Scale Discovery, Gaithersburg, MD). The phospho HER2 signal was normalized to total HER2 for each sample; results are reported as % DMSO control. The normalized data was fitted using a sigmoidal curve analysis program (Graph Pad Prism version 6) with variable Hill slope to determine EC50 values.
The HER2 signaling results are provided in Table 4, under columns titled “BT474-pHER2 EC50”, “N87-pHER2 EC50”, and “NCI-H1781-pHER2 EC50”. Hek293-HER2YVMA ins fall under the heading “HEKYVMA-pHER2 EC50”, Ba/F3 HER2YVMA fall under the heading “Ba/F3 YVMA-pHER2 EC50” and BEAS2B-HER2YVMA fall under the heading “BEAS2B YVMA-pHER2 EC50”.

[2] = target: HER2YVMA (Homo sapiens, UniProt P04626, INS775YVMA); assay: HER2 signaling (pHER2) in Hek293-HER2YVMA cells; assay type: cell-based; set-up: expressed in transfected cells; host or cells: HEK293 (pool), Ba/F3 (clones), BEAS2B (clones); lentiviral vector pCDH-CMV-MCS-EF1-Neo; conditions: 1.5 hr compound, 1% FBS, read-out: HEKYVMA pHER2 EC50
Procedure: Cell culture, plasmid cloning, and lentiviral transduction were carried out according to standard procedures. The Human HER2 cDNA construct in pCMV6-Entry for the HER2 wildtype (WT) expression was obtained from Origene. The HER2 cDNA including the 12-nucleotide insertion corresponding to YVMA insertion (HER2YVMA) was codon optimized, synthesized and cloned by GenScript (Piscataway, NJ) in pcDNA3.1. The lentiviral constructs expressing HER2YVMA and HER2 WT were sub-cloned using PCR at System Biosciences (SBI, Mountainview, CA) into lentiviral vectors pCDH-CMV-MCS-EF1-Neo and lentiviral particles were generated.
Engineered lines expressing HER2YVMA and HER2 WT were prepared in HEK293 (human embryonic kidney cells), Ba/F3 (Interleukin 3 (IL3)-dependent murine pro B cell line), and BEAS2B (primary immortalized human bronchial epithelial cell line). Ba/F3, BEAS2B, and HEK293 cells were obtained from the American Type Culture Collection (ATCC, Manassas, VA). Parental Ba/F3 cells were grown in suspension in complete RPMI 1640 supplemented with 10% FBS and 1% P/S and 10 ng/ml interleukin 3 (IL3, Sigma-Aldrich). Hek293 and BEAS2B cells were grown as monolayers in DMEM supplemented with 10% FBS and 1% P/S. All cells were maintained and propagated in a humidified 5% CO2 incubator at 37° C.
To generate Ba/F3, BEAS2B, and Hek-293 cells engineered with lentivirus to express HER2 WT or HER2YVMA, the cells were transduced with lentiviruses at multiplicity of infection (MOI) of 1 or 10; transduced cells were selected and maintained with G418 ([…]) (Geneticin, Life Technologies, Carlsbad, CA). Ba/F3 engineered cells were subjected to gradual withdrawal of interleukin 3 (IL-3, Sigma-Aldrich). After selection, IL3 independent Ba/F3 HER2YVMA, and BEAS2B HER2YVMA cells were cloned by limiting dilution. Hek293 HER2YVMA cells were used as pool. HER2 and phospho HER2 levels were confirmed by flow cytometery and immunoassay (MSD, Meso-Scale Discovery, Rockville, Maryland).
as §1, §2, §3
The HER2 signaling results are provided in Table 4, under columns titled “BT474-pHER2 EC50”, “N87-pHER2 EC50”, and “NCI-H1781-pHER2 EC50”. […]

T1 sequence (P04626 23-1255): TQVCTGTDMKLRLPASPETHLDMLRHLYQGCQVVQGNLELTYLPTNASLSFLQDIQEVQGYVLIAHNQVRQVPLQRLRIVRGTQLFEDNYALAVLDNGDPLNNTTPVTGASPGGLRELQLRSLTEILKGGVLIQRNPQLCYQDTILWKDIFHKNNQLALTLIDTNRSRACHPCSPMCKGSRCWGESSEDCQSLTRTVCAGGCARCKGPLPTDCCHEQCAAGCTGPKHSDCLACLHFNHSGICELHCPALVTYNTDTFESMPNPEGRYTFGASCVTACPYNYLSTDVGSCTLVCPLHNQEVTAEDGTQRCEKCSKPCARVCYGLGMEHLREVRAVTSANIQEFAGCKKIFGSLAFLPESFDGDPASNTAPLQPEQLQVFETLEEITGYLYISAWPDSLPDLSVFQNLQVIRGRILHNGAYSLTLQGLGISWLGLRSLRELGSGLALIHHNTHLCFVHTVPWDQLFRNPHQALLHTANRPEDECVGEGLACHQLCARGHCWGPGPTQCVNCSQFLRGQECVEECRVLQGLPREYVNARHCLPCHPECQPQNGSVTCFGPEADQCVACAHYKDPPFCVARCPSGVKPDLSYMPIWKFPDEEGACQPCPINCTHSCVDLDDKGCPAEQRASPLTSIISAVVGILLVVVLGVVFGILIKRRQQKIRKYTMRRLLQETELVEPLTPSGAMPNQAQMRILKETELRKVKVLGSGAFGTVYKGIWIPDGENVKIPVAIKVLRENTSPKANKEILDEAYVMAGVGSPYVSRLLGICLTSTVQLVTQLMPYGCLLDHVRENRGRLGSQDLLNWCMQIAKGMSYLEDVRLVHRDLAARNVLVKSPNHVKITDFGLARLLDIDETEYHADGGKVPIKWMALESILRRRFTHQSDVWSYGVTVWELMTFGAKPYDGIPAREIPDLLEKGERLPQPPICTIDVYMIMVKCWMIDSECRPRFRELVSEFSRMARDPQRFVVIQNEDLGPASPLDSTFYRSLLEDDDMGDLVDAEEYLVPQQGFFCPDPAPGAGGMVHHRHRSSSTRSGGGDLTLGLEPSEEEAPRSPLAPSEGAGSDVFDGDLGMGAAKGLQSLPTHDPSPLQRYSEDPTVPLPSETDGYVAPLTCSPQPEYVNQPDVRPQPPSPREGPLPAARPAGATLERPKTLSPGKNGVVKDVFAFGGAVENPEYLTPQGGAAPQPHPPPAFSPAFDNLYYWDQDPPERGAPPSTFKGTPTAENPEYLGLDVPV
HER2YVMA, sequence (P04626 with tags, fused parts or gaps INS775YVMA): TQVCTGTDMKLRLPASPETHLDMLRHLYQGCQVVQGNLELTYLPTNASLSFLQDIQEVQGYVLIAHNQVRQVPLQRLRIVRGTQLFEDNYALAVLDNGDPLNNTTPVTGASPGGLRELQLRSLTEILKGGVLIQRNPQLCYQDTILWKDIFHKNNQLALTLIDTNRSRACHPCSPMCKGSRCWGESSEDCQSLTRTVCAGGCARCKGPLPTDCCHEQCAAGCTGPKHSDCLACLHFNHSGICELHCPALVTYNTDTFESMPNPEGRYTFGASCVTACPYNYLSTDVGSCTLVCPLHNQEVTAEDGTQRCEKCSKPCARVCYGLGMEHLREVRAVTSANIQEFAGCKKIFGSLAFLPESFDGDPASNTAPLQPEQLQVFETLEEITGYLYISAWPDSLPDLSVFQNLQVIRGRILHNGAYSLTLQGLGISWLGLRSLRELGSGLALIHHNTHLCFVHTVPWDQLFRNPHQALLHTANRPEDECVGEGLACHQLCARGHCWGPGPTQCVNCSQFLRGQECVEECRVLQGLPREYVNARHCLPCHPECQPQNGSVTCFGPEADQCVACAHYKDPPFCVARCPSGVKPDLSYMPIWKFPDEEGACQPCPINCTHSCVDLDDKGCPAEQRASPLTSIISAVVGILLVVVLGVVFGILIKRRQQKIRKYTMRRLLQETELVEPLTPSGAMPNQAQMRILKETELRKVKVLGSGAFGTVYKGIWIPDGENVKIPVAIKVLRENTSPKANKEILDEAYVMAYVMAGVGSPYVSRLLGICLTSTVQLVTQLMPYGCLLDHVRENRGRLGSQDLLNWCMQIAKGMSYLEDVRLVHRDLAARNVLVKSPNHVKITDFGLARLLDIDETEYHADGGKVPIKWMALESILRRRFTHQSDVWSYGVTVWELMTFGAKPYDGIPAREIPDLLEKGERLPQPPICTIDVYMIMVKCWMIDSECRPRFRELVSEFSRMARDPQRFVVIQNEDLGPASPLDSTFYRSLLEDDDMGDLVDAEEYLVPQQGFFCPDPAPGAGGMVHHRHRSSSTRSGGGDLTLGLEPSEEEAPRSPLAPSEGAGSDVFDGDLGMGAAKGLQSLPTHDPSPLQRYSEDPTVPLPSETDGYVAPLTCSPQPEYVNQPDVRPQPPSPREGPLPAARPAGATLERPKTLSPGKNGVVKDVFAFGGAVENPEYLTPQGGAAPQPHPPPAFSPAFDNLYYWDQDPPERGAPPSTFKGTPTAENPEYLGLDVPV

EC50 [1] [nM]	EC50 [2] [nM]	Compound
100 to 350	350 to 1000	Cc1ccc(Oc2ccc(Nc3ncnc4sc5c(c34)C(C)N(C(=O)C=CCN(C)C)C5)cc2C)cn1 (single isomer, unassigned) [Compound 148]
< 100	< 100	Cc1ccc(Oc2ccc(Nc3ncnc4sc5c(c34)CCN(C(=O)/C=C/CN3CCC[C@@H](CO)C3)C5)cc2C)cn1 [Compound 154]
< 100	100 to 350	COc1ccc(Oc2ccc(Nc3ncnc4sc5c(c34)CCN(C(=O)/C=C/CN(C)C)CC5)cc2C)cn1 [Compound 173, (E)-4-(Dimethylamino)-1-(4-((4-((6-methoxypyridin-3-yl)oxy)-3-methylphenyl)amino)-8,9-dihydro-5H-pyrimido[5′,4′:4,5]thieno[2,3-d]azepin-7(6H)-yl)but-2-en-1-one]
< 100	< 100	Cc1ccc(Oc2ccc(Nc3ncnc4sc5c(c34)C(C)CN(C(=O)/C=C/CN3CCOCC3)C5)cc2C)cn1 (centres unmarked) [Compound 174, (E)-1-(5-Methyl-4-((3-methyl-4-((6-methylpyridin-3-yl)oxy)phenyl)amino)-5,6-dihydropyrido[4′,3′:4,5]thieno[2,3-d]pyrimidin-7(8H)-yl)-4-morpholinobut-2-en-1-one]
< 100	< 100	COc1ccc(Oc2ccc(Nc3ncnc4sc5c(c34)CCN(C(=O)/C=C/CN3CC[C@@H](CO)C3)C5)cc2C)cn1 [Compound 143]
< 100	100 to 350	Cc1ccc(Oc2ccc(Nc3ncnc4sc5c(c34)C[C@@H](C)N(C(=O)/C=C/CN(C)C)[C@@H]5C)cc2C)cn1 (racemic) [Compound 165, (E)-1-(6,8-trans-dimethyl-4-((3-methyl-4-((6-methylpyridin-3-yl)oxy)phenyl)amino)-5,8-dihydropyrido[4′,3′:4,5]thieno[2,3-d]pyrimidin-7(6H)-yl)-4-(dimethylamino)but-2-en-1-one]
< 100	100 to 350	Cc1cc(Nc2ncnc3sc4c(c23)CCN(C(=O)/C=C/CN(C)C)CC4)ccc1Oc1ccn2ccnc2c1 [Compound 172, (E)-4-(Dimethylamino)-1-(4-((4-(imidazo[1,2-a]pyridin-7-yloxy)-3-methylphenyl)amino)-8,9-dihydro-5H-pyrimido[5′,4′:4,5]thieno[2,3-d]azepin-7(6H)-yl)but-2-en-1-one]
< 100	< 100	Cc1ccc(Oc2ccc(Nc3ncnc4sc5c(c34)CCN(C(=O)/C=C/CN3CCC(O)C(C)(C)C3)C5)cc2C)cn1 (centres unmarked) [Compound 114]
< 100	< 100	CCN(CC)C/C=C/C(=O)N1CCc2c(sc3ncnc(Nc4ccc(Oc5ccc(OC)nc5)c(C)c4)c23)C1 [Compound 137]
< 100	< 100	Cc1ccc(Oc2ccc(Nc3ncnc4sc5c(c34)CCN(C(=O)/C=C/CN3CCO[C@H](CO)C3)C5)cc2C)cn1 [Compound 136]
< 100	< 100	C=CC(=O)N1CCc2c(sc3ncnc(Nc4ccc(Oc5cccnc5)c(C)c4)c23)C1 [Compound 11, 1-(4-((3-methyl-4-(pyridin-3-yloxy)phenyl)amino)-5,8-dihydropyrido[4′,3′:4,5]thieno[2,3-d]pyrimidin-7(6H)-yl)prop-2-en-1-one]
< 100	100 to 350	Cc1ccc(Oc2ccc(Nc3ncnc4sc5c(c34)CCN(C(=O)/C=C/CN3CC(F)(CO)C3)C5)cc2C)cn1 [Compound 151]
< 100	< 100	COc1ccc(Oc2ccc(Nc3ncnc4sc5c(c34)C(C)CN(C(=O)C=CCN(C)C)C5)cc2C)cn1 (single isomer, unassigned) [Compound 159]
< 100	< 100	Cc1ccc(Oc2ccc(Nc3ncnc4sc5c(c34)CCN(C(=O)/C=C/CN3CCC[C@H](CO)C3)C5)cc2C)cn1 [Compound 155]

Compound	EC50 [1] [nM]	EC50 [2] [nM]
Cc1ccc(Oc2ccc(Nc3ncnc4sc5c(c34)CCN(C(=O)/C=C/CN3CC4CCC(C4)C3)C5)cc2C)cn1 [Compound 16, (E)-4-(3-azabicyclo[3.2.1]octan-3-yl)-1-(4-((3-methyl-4-((6-methylpyridin-3-yl)oxy)phenyl)amino)-5,8-dihydropyrido[4′,3′:4,5]thieno[2,3-d]pyrimidin-7(6H)-yl)but-2-en-1-one benzenesulfonate salt]	< 100	< 100
COc1cc(Nc2ncnc3sc4c(c23)CCN(C(=O)/C=C/CN(C)C)C4)ccc1Oc1ccccc1 [Compound 7, (E)-4-(dimethylamino)-1-(4-((3-methoxy-4-phenoxyphenyl)amino)-5,8-dihydropyrido[4′,3′:4,5]thieno[2,3-d]pyrimidin-7(6H)-yl)but-2-en-1-one]	< 100	< 100
Cc1ccc(Oc2ccc(Nc3ncnc4sc5c(c34)CCN(C(=O)/C=C/CN3CCOCC3)C5)cc2C)cn1 [Compound 17, (E)-1-(4-((3-Methyl-4-((6-methylpyridin-3-yl)oxy)phenyl)amino)-5,6-dihydropyrido[4′,3′:4,5]thieno[2,3-d]pyrimidin-7(8H)-yl)-4-morpholinobut-2-en-1-one]	< 100	< 100
Cc1cc(Nc2ncnc3sc4c(c23)CCN(C(=O)/C=C/CN(C)C)C4)ccc1Oc1ccc2nccn2c1 [Compound 109, (E)-4-(dimethylamino)-1-(4-((4-(imidazo[1,2-a]pyridin-6-yloxy)-3-methylphenyl)amino)-5,6-dihydropyrido[4′,3′:4,5]thieno[2,3-d]pyrimidin-7(8H)-yl)but-2-en-1-one]	< 100	< 100
Cc1nc2cc(Oc3ccc(Nc4ncnc5sc6c(c45)CCN(C(=O)/C=C/CN(C)C)C6)cc3C)ccn2n1 [Compound 127, (E)-4-(dimethylamino)-1-(4-((3-methyl-4-((2-methyl-[1,2,4]triazolo[1,5-a]pyridin-7-yl)oxy)phenyl)amino)-5,6-dihydropyrido[4′,3′:4,5]thieno[2,3-d]pyrimidin-7(8H)-yl)but-2-en-1-one]	< 100	< 100
